# In US12018267B2, “Plants having increased tolerance to herbicides” (BASF SE, priority 2015, dated 2024):
# Key:
# [1] = tested on: transgenic Arabidopsis plants with wildtype or mutated cellulose synthase sequences (SEQ ID NO: 1 or 3); assay: 48-well plate growth inhibition of transgenic T2 Arabidopsis, relative tolerance rates versus non-transgenic (Table E2-1); format: in vivo, Arabidopsis thaliana; settings: growth inhibition evaluated seven to ten days after seeding
# Excerpt: For transformation of Arabidopsis thaliana, wildtype or mutated cellulose synthase sequences encoding for one of the following protein sequences SEQ ID NO: 1 or 3, are cloned with standard cloning techniques as described in Sambrook et al. (Molecular cloning (2001) Cold Spring Harbor Laboratory Press) in a binary vector containing resistance marker gene cassette (AHAS) and mutated cellulose synthase sequence (marked as GOI) in between ubiquitin promoter (PcUbi) and nopaline synthase terminator (NOS) sequence. Binary plasmids are introduced to Agrobacterium tumefaciens for plant transformation. Arabidopsis thaliana are transformed with wildtype or mutated cellulose synthase sequences by floral dip method as described by McElver and Singh (WO 2008/124495). Transgenic Arabidopsis plants are subjected to TaqMan analysis for analysis of the number of integration loci.
# Transgenic Arabidopsis thaliana plants (T2) are assayed for improved tolerance to azine herbicides like e. g. 6-cyclopentyl-N4-(2,3,4,5,6-pentafluorophenyl)-1,3,5-triazine-2,4-diamine in 48-well plates. Therefore, T2 seeds are surface sterilized by stirring for 5 min in ethanol+water (70+30 by volume), rinsing one time with ethanol+water (70+30 by volume) and two times with sterile, deionized water. The seeds are resuspended in 0.1% agar dissolved in water (w/v) Four to five seeds per well are plated on solid nutrient medium consisting of half-strength murashige skoog nutrient solution, pH 5.8 (Murashige and Skoog (1962) Physiologia Plantarum 15: 473-497). Compounds are dissolved in dimethylsulfoxid (DMSO) and added to the medium prior solidification (final DMSO concentration 0.1%). Multi well plates are incubated in a growth chamber at 22° C., 75% relative humidity and 110 μmol Phot*m^−2*s^−1 with 14:10 h light:dark photoperiod. Growth inhibition is evaluated seven to ten days after seeding in comparison to wild type plants. Tolerance factors are calculated based on IC50 values of growth inhibition of transformed versus non-transformed Arabidopsis plants.
# [2] = tested on: At_CESA1_R292H (SEQ ID 1 - Variant R292H) M3 Arabidopsis plants; assay: Greenhouse pre-emergent treatment of M3 Arabidopsis seeds, phytotox (injury) rating, CESA1 R292H variant; format: in vivo, Arabidopsis thaliana; settings: 21 days after treatment
# Excerpt: For selection of cellulose biosynthesis inhibitor resistant plants EMS mutagenized seed populations of Arabidopsis thaliana are used. EMS mutagenized seed populations are either bought from Lehle Seeds (1102 South Industrial Blvd. Suite D, Round Rock, Texas USA) or are generated as described elsewhere (Heim D R, et al. (1989) Plant Physiol. 90: 146-150). Causative mutations in CESA wildtype sequences (e.g. SEQ ID NO: 1 or 3) are identified as described by Scheible W R et al. (2001, Proc. Natl. Acad. of Sci. 98: 10079-10084), McCourt et. al. (WO2013/142968) or with the use of next generation sequencing methods as described by Austin R S, et al. (2011) Plant Journal 67: 715-725.
# (§1) Additionally, M3 Arabidopsis seeds are tested for improved tolerance to CESA-inhibiting herbicides in greenhouse studies with azine compounds like e. g. N2-(4-chloro-3,5,6-trifluoro-2-pyridyl)-6-(1-fluorocyclopentyl)-1,3,5-triazine-2,4-diamine (Table E1-1, see also FIG. 3).
# [3] = tested on: wildtype Arabidopsis thaliana; assay: Greenhouse pre-emergent treatment of M3 Arabidopsis seeds, phytotox (injury) rating, wildtype; format: in vivo; settings: 21 days after treatment
# Experimental: as §1
# [4] = Construct AtCesA1_G1031R, SEQ ID 1, variant G1031R
# [5] = Construct AtCesA1_R292H, SEQ ID 1, variant R292H
# [6] = Construct AtCesA1_V297M, SEQ ID 1, variant V297M
# [7] = Construct AtCesA1_wt, SEQ ID 1, no variant
# [8] = Construct AtCesA3_wt, SEQ ID 3, no variant
# [9] = Construct AtCesA1_L1011A, SEQ ID 1, variant L1011A
# [10] = Construct AtCesA3_F1039L, SEQ ID 3, variant F1039L
smiles,measurement,setting,value
Cc1cccc(-n2nc(C(N)=O)nc2-c2ccccc2)c1,Relative tolerance rate of transgenic Arabidopsis plants as compared to non-transgenic (non-transgenic = 1.0),[1]; [4],13
same,Relative tolerance rate of transgenic Arabidopsis plants as compared to non-transgenic (non-transgenic = 1.0),[1]; [5],31
same,Relative tolerance rate of transgenic Arabidopsis plants as compared to non-transgenic (non-transgenic = 1.0),[1]; [6],5
same,Relative tolerance rate of transgenic Arabidopsis plants as compared to non-transgenic (non-transgenic = 1.0),[1]; [7],3
same,Relative tolerance rate of transgenic Arabidopsis plants as compared to non-transgenic (non-transgenic = 1.0),[1]; [8],4
"NC(=O)c1nc(-c2ccccc2)n(-c2ccc(Cl)c(COCC(F)(F)C(F)(F)F)c2)n1 [1-[4-chloro-3-(2,2,3,3,3-pentafluoropropoxymethyl)phenyl]-5-phenyl-1,2,4-triazole-3-carboxamide, reference compound]",phytotox value,"[2]; At_CESA1_R292H event A, 7.8 g ai/ha",7.5
same,phytotox value,"[2]; At_CESA1_R292H event A, 31.25 g ai/ha",80
same,phytotox value,"[2]; At_CESA1_R292H event A, 125 g ai/ha",100
same,phytotox value,"[2]; At_CESA1_R292H event A, 250 g ai/ha",100
same,phytotox value,"[2]; At_CESA1_R292H event B, 7.8 g ai/ha",25
same,phytotox value,"[2]; At_CESA1_R292H event B, 31.25 g ai/ha",52.5
same,phytotox value,"[2]; At_CESA1_R292H event B, 125 g ai/ha",100
same,phytotox value,"[2]; At_CESA1_R292H event B, 250 g ai/ha",100
same,phytotox value,[3]; 7.8 g ai/ha,12.5
same,phytotox value,[3]; 31.25 g ai/ha,99
same,phytotox value,[3]; 125 g ai/ha,100
same,phytotox value,[3]; 250 g ai/ha,100
same,Relative tolerance rate of transgenic Arabidopsis plants as compared to non-transgenic (non-transgenic = 1.0),[1]; [9],7
same,Relative tolerance rate of transgenic Arabidopsis plants as compared to non-transgenic (non-transgenic = 1.0),[1]; [10],3
"Nc1nc(Nc2nc(F)c(F)c(Cl)c2F)nc(C2(F)CCCC2)n1 [N2-(4-chloro-3,5,6-trifluoro-2-pyridyl)-6-(1-fluorocyclopentyl)-1,3,5-triazine-2,4-diamine]",phytotox value,"[2]; At_CESA1_R292H event A, 0.5 g ai/ha",10
same,phytotox value,"[2]; At_CESA1_R292H event A, 1 g ai/ha",10
same,phytotox value,"[2]; At_CESA1_R292H event A, 2 g ai/ha",45
same,phytotox value,"[2]; At_CESA1_R292H event A, 4 g ai/ha",94
same,phytotox value,"[2]; At_CESA1_R292H event B, 0.5 g ai/ha",5
same,phytotox value,"[2]; At_CESA1_R292H event B, 1 g ai/ha",0
same,phytotox value,"[2]; At_CESA1_R292H event B, 2 g ai/ha",17.5
same,phytotox value,"[2]; At_CESA1_R292H event B, 4 g ai/ha",87.5
same,phytotox value,[3]; 0.5 g ai/ha,60
same,phytotox value,[3]; 1 g ai/ha,65
same,phytotox value,[3]; 2 g ai/ha,98
same,phytotox value,[3]; 4 g ai/ha,100
same,Relative tolerance rate of transgenic Arabidopsis plants as compared to non-transgenic (non-transgenic = 1.0),[1]; [4],3
same,Relative tolerance rate of transgenic Arabidopsis plants as compared to non-transgenic (non-transgenic = 1.0),[1]; [9],1
same,Relative tolerance rate of transgenic Arabidopsis plants as compared to non-transgenic (non-transgenic = 1.0),[1]; [5],1
same,Relative tolerance rate of transgenic Arabidopsis plants as compared to non-transgenic (non-transgenic = 1.0),[1]; [6],1
same,Relative tolerance rate of transgenic Arabidopsis plants as compared to non-transgenic (non-transgenic = 1.0),[1]; [7],2
same,Relative tolerance rate of transgenic Arabidopsis plants as compared to non-transgenic (non-transgenic = 1.0),[1]; [10],1
same,Relative tolerance rate of transgenic Arabidopsis plants as compared to non-transgenic (non-transgenic = 1.0),[1]; [8],1
